Data: patent publication US5334728A (The Trustees of The University of Pennsylvania, priority 1992, dated 1994)
Several values for one entry are separate records, joined by “and”; a condition that tells them apart may be missing. Identical values can stand only once.

Key:
dopamine D-2 receptor [1] = target: T1, dopamine D-2 receptor (Rattus norvegicus, UniProt P61169); assay: Saturation binding of [^125 I]IBF to rat striatal homogenate in vitro
T1 construct: Striatal tissues were excised, pooled and homogenized in 100 volumes (w/v) of ice-cold Tris-HCl buffer; from tissue; host or cells: rat striatum (male Sprague-Dawley), twice-centrifuged membrane homogenate
Experimental: (§1) Male Sprague-Dawley rats (200-250 g) were decapitated, and the brains were removed and placed in ice. Striatal tissues were excised, pooled and homogenized in 100 volumes (w/v) of ice-cold Tris-HCl buffer (50 mM), pH 7.4. The homogenates were centrifuged at 20,000× g for 20 min. The resultant pellets were rehomogenized in the same buffer and centrifuged again. The final pellets were resuspended in assay buffer containing: 50 mM Tris buffer pH 7.4, 120 mM NaCl, 5 mM KCl, 2 mM CaCl2 and 1 mM MgCl2 and kept at -20° C. for the following binding assay.
(§2) The binding assays were performed by incubating 50 μl of tissue preparations containing 40-60 μg of protein with appropriate amounts of l-125 labeled ligand and competitors in a total volume of 0.2 ml of the assay buffer. After an incubation period of 15 min at 37° C. (with stirring), the samples were rapidly filtered in the cell harvester (Brandel M-24R) under vacuum through Whatman GF/B glass fiber filters pretreated with 0.2% protamine base and washed with 3×5 ml of cold (4° C.) 50 mM Tris-HCl buffer, pH 7.4. […] The filters were counted in a gamma counter (Beckman 5500) at an efficiency of 70%.

dopamine D-2 receptor [2] = target: T1, dopamine D-2 receptor; assay: Competition binding using [^125 I]IBF, rat striatal membranes
Experimental: *0.15-0.30 nM [^125 I]IBF was incubated in the presence of the
indicated compounds in 7-11 concentrations and of membrane preparation
from rat striatum. Each value represents the mean ± SEM of three to
as §1, §2

[3] = Biodistribution in rats after IV injection; format: in vivo, rat
Experimental: Male Sprague Dawley rats (225-300 g), which were allowed free access to food and water, were used for in vivo biodistribution study. While under halothane anesthesia, 0.2 ml of a saline solution containing [^125 l]IBF, 21, (8-10 μCi) was injected directly into the femoral vein, and the rats were sacrificed at various time points postinjection by cardiac excision under halothane anesthesia. The organs of interest were removed, weighed and the radioactivity was counted using a Beckman gamma automatic counter (Model 4000). The percent dose per organ was calculated by a comparison of the tissue counts to suitably diluted aliquots of the injected material. Total activities of blood and muscle were calculated assuming that they are 7% and 40% of total body weight, respectively.

[4] = tested on: CNS D-2 dopamine receptors; assay: Regional brain distribution in rats after iv injection; format: in vivo; details: rat; for striatum/cerebellum (ST/CB) ratio: % dose/gram ratio
Source text: FIG. 2 is a bar graph showing ratios (based on % dose/gram) of regional cerebral uptake of [^125 I]IBF (CX: cortex, ST: striatum, CB: cerebellum, HP: hippocampus).
(§3) (See FIG. 2). This type of profound increase in target to nontarget ratio versus time was not observed for the other two regions (hippocampus and cortex) (FIG. 2). […] The data have been further confirmed by an in vivo imaging study of a monkey.
Regional brain distribution in rats was obtained after an iv injection of [^125 l]IBF, 21. By dissecting, weighing and counting samples from different brain regions (cortex, striatum, hippocampus and cerebellum), % dose/gram of samples was calculated by comparing the sample counts with the counts of the diluted initial dose. The uptake ratio of each region was obtained by dividing % dose/gram of each region with that ot the cerebellum.

[5] = tested on: CNS D-2 dopamine receptors; assay: Ex vivo autoradiography (preliminary); format: in vivo; details: preliminary study
Source text: as §3

[6] = tested on: CNS D-2 dopamine receptors; assay: In vivo planar imaging of a monkey; details: planar images
Source text: as §3

[7] = 2 min, IV, average of 3 rats ± SD
[8] = 15 min, IV, average of 3 rats ± SD
[9] = 30 min, IV, average of 3 rats ± SD
[10] = 60 min, IV, average of 3 rats ± SD
[11] = 120 min, IV, average of 3 rats ± SD

T1 sequence (P61169 whole entry): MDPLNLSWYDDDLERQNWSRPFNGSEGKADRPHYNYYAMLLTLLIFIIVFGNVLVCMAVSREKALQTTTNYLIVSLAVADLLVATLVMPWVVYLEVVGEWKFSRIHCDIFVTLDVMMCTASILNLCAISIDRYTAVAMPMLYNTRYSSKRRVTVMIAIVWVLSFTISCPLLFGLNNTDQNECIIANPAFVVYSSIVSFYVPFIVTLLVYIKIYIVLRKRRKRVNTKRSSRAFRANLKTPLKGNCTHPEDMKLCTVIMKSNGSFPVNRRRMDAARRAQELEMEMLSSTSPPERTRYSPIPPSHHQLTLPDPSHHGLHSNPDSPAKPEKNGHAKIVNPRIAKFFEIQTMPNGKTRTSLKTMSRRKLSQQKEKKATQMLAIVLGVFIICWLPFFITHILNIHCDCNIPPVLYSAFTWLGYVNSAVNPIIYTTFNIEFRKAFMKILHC

CCN1CCC[C@H]1CNC(=O)c1cc([125I])cc2c1OCC2 [[^125 I]IBF]
specific binding saturability (dopamine D-2 receptor [1]): saturable
Kd (dopamine D-2 receptor [1]; rat striatal homogenate in vitro, read-out: Kd, specific binding): 106 ± 15 pM
nonspecific binding (dopamine D-2 receptor [1]; saturation curve, FIG. 1): extremely low nonspecific binding
nonspecific binding at Kd (dopamine D-2 receptor [1]; saturation curve, FIG. 1): 5%
selectivity of binding to the dopamine D-2 receptor (dopamine D-2 receptor [2]): binds specifically and selectively to the dopamine D-2 receptor
Blood uptake [3, 7]: 3.50 ± 0.22 % Dose/Organ
Brain uptake [3, 7]: 0.98 ± 0.15 % Dose/Organ and 0.98 % Dose/Organ
Brain/Blood ratio [3, 7]: 2.64 ± 0.32 % dose/gram ratio
Heart uptake [3, 7]: 0.81 ± 0.25 % Dose/Organ
Kidney uptake [3, 7]: 7.58 ± 0.66 % Dose/Organ
Liver uptake [3, 7]: 16.32 ± 4.00 % Dose/Organ
Lung uptake [3, 7]: 6.14 ± 1.19 % Dose/Organ and 6.14 % Dose/Organ
Muscle uptake [3, 7]: 11.25 ± 2.62 % Dose/Organ
Skin uptake [3, 7]: 8.54 ± 1.21 % Dose/Organ
Spleen uptake [3, 7]: 0.96 ± 0.08 % Dose/Organ
Thyroid uptake [3, 7]: 0.06 ± 0.02 % Dose/Organ
Blood uptake [3, 8]: 1.80 ± 0.31 % Dose/Organ
Brain uptake [3, 8]: 0.54 ± 0.06 % Dose/Organ
Brain/Blood ratio [3, 8]: 3.01 ± 0.91 % dose/gram ratio
Heart uptake [3, 8]: 0.20 ± 0.03 % Dose/Organ
Kidney uptake [3, 8]: 2.92 ± 0.30 % Dose/Organ
Liver uptake [3, 8]: 16.16 ± 7.54 % Dose/Organ
Lung uptake [3, 8]: 1.85 ± 0.33 % Dose/Organ
Muscle uptake [3, 8]: 14.36 ± 1.29 % Dose/Organ
Skin uptake [3, 8]: 8.46 ± 0.56 % Dose/Organ
Spleen uptake [3, 8]: 0.58 ± 0.08 % Dose/Organ
Thyroid uptake [3, 8]: 0.03 ± 0.004 % Dose/Organ
Blood uptake [3, 9]: 1.26 ± 0.10 % Dose/Organ
Brain uptake [3, 9]: 0.30 ± 0.05 % Dose/Organ
Brain/Blood ratio [3, 9]: 2.26 ± 0.33 % dose/gram ratio
Heart uptake [3, 9]: 0.11 ± 0.01 % Dose/Organ
Kidney uptake [3, 9]: 1.58 ± 0.46 % Dose/Organ
Liver uptake [3, 9]: 11.59 ± 0.93 % Dose/Organ
Lung uptake [3, 9]: 0.82 ± 0.08 % Dose/Organ and 0.82 % Dose/Organ
Muscle uptake [3, 9]: 9.00 ± 1.66 % Dose/Organ
Skin uptake [3, 9]: 5.34 ± 0.17 % Dose/Organ
Spleen uptake [3, 9]: 0.31 ± 0.03 % Dose/Organ
Thyroid uptake [3, 9]: 0.02 ± 0.004 % Dose/Organ
Blood uptake [3, 10]: 0.98 ± 0.11 % Dose/Organ
Brain uptake [3, 10]: 0.17 ± 0.02 % Dose/Organ and 0.17 % Dose/Organ
Brain/Blood ratio [3, 10]: 1.90 ± 0.29 % dose/gram ratio
Heart uptake [3, 10]: 0.05 ± 0.002 % Dose/Organ
Kidney uptake [3, 10]: 1.01 ± 0.01 % Dose/Organ
Liver uptake [3, 10]: 9.84 ± 1.50 % Dose/Organ
Lung uptake [3, 10]: 0.37 ± 0.10 % Dose/Organ
Muscle uptake [3, 10]: 4.97 ± 0.56 % Dose/Organ
Skin uptake [3, 10]: 2.38 ± 0.17 % Dose/Organ
Spleen uptake [3, 10]: 0.09 ± 0.01 % Dose/Organ
Thyroid uptake [3, 10]: 0.02 ± 0.01 % Dose/Organ and 0.02 % Dose/Organ
Blood uptake [3, 11]: 0.53 ± 0.02 % Dose/Organ
Brain uptake [3, 11]: 0.07 ± 0.006 % Dose/Organ
Brain/Blood ratio [3, 11]: 1.53 ± 0.12 % dose/gram ratio
Heart uptake [3, 11]: 0.02 ± 0.001 % Dose/Organ
Kidney uptake [3, 11]: 0.68 ± 0.32 % Dose/Organ
Liver uptake [3, 11]: 3.95 ± 0.31 % Dose/Organ
Muscle uptake [3, 11]: 2.30 ± 0.22 % Dose/Organ
Skin uptake [3, 11]: 1.18 ± 0.18 % Dose/Organ
Spleen uptake [3, 11]: 0.03 ± 0.007 % Dose/Organ
Thyroid uptake [3, 11]: 0.08 ± 0.03 % Dose/Organ
in vivo deiodination ([3]; from thyroid uptake at one hour postinjection): little or no in vivo deiodination
in vivo stability compared with [^125 I]IBZM ([3]; rat, in vivo): better in vivo stability
lung clearance ([3]; rats): rapidly cleared
Liver uptake ([3]; rats, first hour to two hours postinjection): remained high throughout the first hour and gradually declined at two hours postinjection
Brain uptake ([3]; rats, intravenous): good brain uptake in rats
striatum/cerebellum (ST/CB) ratio ([4]; 2 min): 2.0
striatum/cerebellum (ST/CB) ratio ([4]; 15 min): 3.8
striatum/cerebellum (ST/CB) ratio ([4]; 30 min): 6.2
striatum/cerebellum (ST/CB) ratio ([4]; 60 min): 18
striatum/cerebellum (ST/CB) ratio ([4]; 120 min): 48
increase in target to nontarget ratio versus time, hippocampus and cortex ([4]; hippocampus and cortex): not observed
retention in the striatum [4]: prolonged retention
striatal uptake and cerebellar activity [5]: high striatal uptake and low cerebellar activity
uptake and retention in the basal ganglia [6]: high uptake and retention in the basal ganglia
